Measurements from patent publication US9675681B2, “Shortened purification process for the production of capsular Streptococcus pneumoniae polysaccharides” (priority 2007, dated 2017).

Key:
[1] = tested on: Streptococcus pneumoniae cells; assay: Screening for non-animal derived lytic agents (serotypes 1 and 6B PS release by SEC-HPLC; lytA mutants); type: cell-based; details: screening studies with serotypes 1 and 6B and lytA mutants
Protocol: Cell Lysis: Compounds to be tested were added to fermentation broth at a final concentration of 0.1 to 0.01% (v/v) and the solution was allowed to incubate at 37° C. for one hour. The solution was then stored at 2-8° C. overnight. The following morning the solution was centrifuged to remove all cell debris. The cell-free broth was analyzed by SEC-HPLC to determine the concentration of released polysaccharide. The lysis could be performed at any temperature between 2-37° C., preferably at a pH range of 6.0-7.5. The concentration of the detergent was typically between 0.05-0.2% depending on the particular detergent.
S. pneumoniae serotypes 1 and 6B were separately grown in Hy-Soy based media. The cultures were separately harvested and separately dispensed into tubes. […] After overnight incubation, the tubes were centrifuged and the PS content of the lysates for each serotype were determined by SEC-HPLC and compared to DOC.
(§1) Isogenic pairs of strains containing the lytA mutation were grown in a Hy-Soy based medium. The cells were harvested and dispensed into wells in a microttiter plate. The test compound was added and the culture was incubated.

[2] = tested on: R6X; assay: Microtiter plate lysis assay, strain R6X (wild type lytA); type: cell-based, S. pneumoniae; details: compound 0.1%, 15 min at 36° C.
Excerpt: (§2) Mitrotiter Assay: A rapid microtiter plate assay was devised for examining lytA-dependent lysis of pneumococci by different detergents or surfactants. Two pairs of isogenic strains of S. pneumoniae were used in the assay; one member of each pair was wild type for the lytA gene while the other strain carried a deletion in the lytA gene Thus, if lysis were dependent on an active lytA function, that detergent would not lyse the mutant strains. The four strains, R6X, R6X ΔlytA, D39 and D39 ΔlytA, were cultivated in HySoy medium to approximately mid-log phase (OD600˜0.2-0.8; OD600=Optical Density at 600 nm). Cells were then centrifuged and cell pellets were resuspended in HySoy medium. To each well of the microtiter plate, 100 μL, of cell suspension was added, along with 10 μL, of detergent stocks or water as a control. After about 15 minutes at 36° C., the OD600 of the samples was measured with a Spectramax® spectrophotometer (Molecular Devices, Sunnyvale, Calif.).
(§3) Isogenic pairs of strains containing the lytA mutation were grown in a Hy-Soy based medium. The cells were harvested and dispensed into wells in a microttiter plate. The test compound was added and the culture was incubated. After 15 min at 36° C., the optical density (OD600) of each well was determined using a SpectraMax® plate reader (Molecular Devices, Sunnyvale, CALIF.)(see Tables 17 and 18, which summarize results from two separate tests for exemplary compounds).

[3] = tested on: ΔlytA cells (R6X ΔlytA, D39 ΔlytA); assay: Microtiter plate lysis assay, ΔlytA cells; type: cell-based, S. pneumoniae; details: freshly prepared or frozen and thawed cells; about 15 minutes at 36° C.
Excerpt: as §2

[4] = tested on: D39 ΔlytA; assay: Microtiter plate lysis assay, strain D39 ΔlytA; type: cell-based, S. pneumoniae; details: compound 0.1%, 15 min at 36° C.
Excerpt: as §2, §3

[5] = tested on: R6X ΔlytA; assay: Microtiter plate lysis assay, strain R6X ΔlytA; type: cell-based, S. pneumoniae; details: compound 0.1%, 15 min at 36° C.
Excerpt: as §2, §3

[6] = tested on: D39; assay: Microtiter plate lysis assay, strain D39 (wild type lytA); type: cell-based, S. pneumoniae; details: compound 0.1%, 15 min at 36° C.
Protocol: as §2, with “Two pairs of isogenic strains of S. pneumoniae were used in the assay; one member of each pair was wild type for the lytA gene while the other strain carried a deletion in the lytA gene Thus, if lysis were dependent on an active lytA function, that detergent would not lyse the mutant strains.” left out
as §1

[7] = tested on: Wild-type cells (R6X, D39); assay: Microtiter plate lysis assay, wild-type cells; type: cell-based, S. pneumoniae; details: freshly prepared or frozen and thawed cells; about 15 minutes at 36° C.
Excerpt: as §2

Compound | Lytic activity compared to DOC (outcome of the screening studies) [1] | Change in OD600, R6X ([2]; Test 1) | Change in OD600, R6X ([2]; Test 2) | Lysis of ΔlytA cells [3] | Change in OD600, D39 ΔlytA ([4]; Test 1) | Change in OD600, D39 ΔlytA ([4]; Test 2) | Change in OD600, R6X ΔlytA ([5]; Test 1) | Change in OD600, R6X ΔlytA ([5]; Test 2) | Change in OD600, D39 ([6]; Test 1) | Change in OD600, D39 ([6]; Test 2) | Lysis of wild-type cells (OD600 versus medium blank) [7]
CCCCCCCCCCS(=O)(=O)O [decanesulfonic acid] | non-animal derived lytic agent alternatives to DOC |  |  |  |  |  |  |  |  |  | 
Triton ® X-100 | non-animal derived lytic agent alternatives to DOC | 91% | 101% | did not lyse | 30% | 4% | 22% | −19% | 97% | 100% | lysis had occurred
C[C@H](CCC(=O)O)[C@H]1CC[C@H]2[C@@H]3[C@H](O)C[C@@H]4C[C@H](O)CC[C@]4(C)[C@H]3C[C@H](O)[C@]12C [cholate] | non-animal derived lytic agent alternatives to DOC |  |  |  |  |  |  |  |  |  | 
C[C@H](CCC(=O)NCCS(=O)(=O)O)[C@H]1CC[C@H]2[C@@H]3[C@H](O)C[C@@H]4C[C@H](O)CC[C@]4(C)[C@H]3CC[C@]12C [taurochenodeoxycholate] | non-animal derived lytic agent alternatives to DOC |  |  |  |  |  |  |  |  |  | 
C[C@H](CCC(=O)O)[C@H]1CC[C@H]2[C@@H]3CC[C@@H]4C[C@H](O)CC[C@]4(C)[C@H]3C[C@H](O)[C@]12C [Deoxycholic acid] |  | 100% | 103% |  | 47% | 41% | 34% | 20% | 99% | 101% | 
C[C@H](CCC(=O)O)[C@H]1CC[C@H]2[C@@H]3CC[C@@H]4C[C@H](O)CC[C@]4(C)[C@H]3CC[C@]12C [Lithocholic acid] |  | 20% |  |  | −2% |  | 16% |  | 8% |  | 
CCCCCCCC/C=C\CCCCCCCC(=O)OCCOCC(OCCO)C1OCC(OCCO)C1OCCO (centres unmarked) [Tween 80] |  | 36% |  |  | 19% |  | 14% |  | 20% |  | 
CCCCCCCCCCCCOS(=O)(=O)[O-].[Na+] [SDS, sodium dodecyl sulfate] | non-animal derived lytic agent alternatives to DOC | 99% | 102% | did not lyse | 36% | 16% | 28% | −13% | 95% | 100% | lysis had occurred
C[C@H](CCC(=O)O)[C@H]1CC[C@H]2[C@@H]3[C@H](O)C[C@@H]4C[C@H](O)CC[C@]4(C)[C@H]3CC[C@]12C [chenodeoxycholate] | non-animal derived lytic agent alternatives to DOC |  |  |  |  |  |  |  |  |  | 
CCCCCCCCS(=O)(=O)O [Octanesulfonic acid] |  | 43% | 13% |  | 16% | −3% | 6% | 3% | 34% | 18% | 
tert-Octylphenoxy poly(oxyethylene)ethanol [Igepal® CA-630] | non-animal derived lytic agent alternatives to DOC |  |  |  |  |  |  |  |  |  | 
C[C@H](CCC(=O)NCC(=O)O)[C@H]1CC[C@H]2[C@@H]3CC[C@@H]4C[C@H](O)CC[C@]4(C)[C@H]3C[C@H](O)[C@]12C [glycodeoxycholate] | non-animal derived lytic agent alternatives to DOC |  |  |  |  |  |  |  |  |  | 
CCCCCCC(=O)O [Heptanoic acid] |  | 25% |  |  | −30% |  | −57% |  | 7% |  | 
C[C@H](CCC(=O)NCCS(=O)(=O)O)[C@H]1CC[C@H]2[C@@H]3CC[C@@H]4C[C@H](O)CC[C@]4(C)[C@H]3C[C@H](O)[C@]12C [taurodeoxycholate] | non-animal derived lytic agent alternatives to DOC |  |  |  |  |  |  |  |  |  | 
CCCCCCCCCCCCN(C)CC(=O)O [N-lauryl sarcosine] | non-animal derived lytic agent alternatives to DOC | 100% | 102% | did not lyse | −44% | 14% | −34% | −40% | 89% | 101% | lysis had occurred
C[C@H](CCC(=O)O)[C@H]1CC[C@H]2[C@@H]3C[C@H](O)[C@@H]4C[C@H](O)CC[C@]4(C)[C@H]3CC[C@]12C [hyodeoxycholate] | non-animal derived lytic agent alternatives to DOC |  |  |  |  |  |  |  |  |  | 
CCCCCCCCCCCCN(CCC(=O)O)CCC(=O)O [lauryl iminodipropionate] | non-animal derived lytic agent alternatives to DOC |  |  |  |  |  |  |  |  |  | 
Tauroglycocholic acid |  | 51% |  |  | −20% |  | −16% |  | 47% |  | 
